Results published in patent US20090163452A1, “COMPOSITIONS AND METHODS FOR LOWERING SERUM CHOLESTEROL” (priority 2007, published 2009).

Columns and labels:
[1] = Plasma atorvastatin and metabolite concentrations/AUC (LC-MS/MS) with and without supplemental vitamin D; type: in vivo, human
Procedure: Study protocol. A prospective crossover study was performed. […] Columbus Ohio 43216). All other prescribed medications were continued unchanged throughout the study. […] The sample cone voltage and collision energy for all analytes and internal standard were set at 30 V and 20 eV, respectively. Chromatography was performed on BDS C18 column (50×4.6 mm, 5 μm particle size, Thermo Electron Corporation, Bellefonte, Pa.). […] Twenty-five percent of flow liquid was split into the mass system. […] The organic layer then transferred to another tube and evaporated by N2 gas and reconstituted with 0.2 ml 50% CH3CN containing 0.05% acetic acid and 5 mM ammonium acetate, and 20 μl was injected onto column. Lower limit of detection was 0.313 ng/ml for atorvasatin and metabolites. […] Area under the plasma concentration vs. time curve (AUC) was calculated by trapezoidal rule.

[2] = test system: cholesterol (total, LDL-cholesterol, and HDL-cholesterol); assay: Serum cholesterol concentrations (enzymatic assay) in patients on atorvastatin with and without supplemental vitamin D; type: in vivo, human; conditions: for Cholesterol Total: serum; for Cholesterol Total / LDL-cholesterol / HDL-cholesterol: mean ± S.D.; for LDL-cholesterol: calculated LDL
Procedure: Study protocol. A prospective crossover study was performed. […] Columbus Ohio 43216). All other prescribed medications were continued unchanged throughout the study. […] Lipid concentration data. Serum samples were analyzed for cholesterol, LDL-cholesterol (calculated) and HDL-cholesterol concentrations by enzymatic assay (Quest Diagnostics, San Jose, Calif.).

[3] = test system: circulating cholesterol; assay: Example 2: atorvastatin with 1000 IU/day vitamin D2 or D3 or placebo for 12 weeks, circulating cholesterol; type: in vivo, human; conditions: co-administration with atorvastatin
Procedure: The focus is on clinical populations including the elderly, frail, and minorities under steady-state conditions and with conditions reflecting “usual” clinical conditions with use of sparse sampling techniques and minimal impact on clinical care. […] About 90 participants are enrolled, with 30 receiving placebo, 30 receiving vitamin D2, and 30 receiving vitamin D3. Total vitamin D intake is analyzed (primarily driven by dairy food intake and supplements), and patients with major absorptive disorders (intestinal bypass surgery, feeding tubes requiring liquid diets, etc) are excluded. Other factors that could affect vitamin D absorption such as alcohol intake are evaluated.

[4] = test system: CYP3A; conditions: in vitro; complex with the vitamin D receptor; CYP3A substrate midazolam; cited from earlier work
[5] = Serum vitamin D metabolite concentrations (LCMSMS) in patients on atorvastatin, crossover with/without supplemental vitamin D; type: in vivo, human; conditions: vitamin D supplementation 800 IU/day for six weeks (On-D), mean ± S.D.
Procedure: Study protocol. A prospective crossover study was performed. […] If subjects were taking vitamin D supplementation at recruitment, assigned study order was “On-D” after six week of standardized study dispensed vitamins followed by the “Off-D” study after six weeks of vitamin D discontinuation. […] All other prescribed medications were continued unchanged throughout the study.

[6] = test system: cholesterol (total, LDL-cholesterol); assay: Example 3: 1000 IU/day vitamin D for 12 weeks in humans not receiving atorvastatin, cholesterol; type: in vivo, human; conditions: one middle-aged subject
Procedure: A study is performed with 1000 IU/day of either vitamin D2 or vitamin D3 or identically packaged placebo for a period of 12 weeks. Cholesterol (total, LDL-cholesterol, HDL-cholesterol) and triglycerides are evaluated before and during supplemental vitamin D or placebo. Focus is on adult humans with or without known lipid disorders that are not receiving atorvastatin.

[7] = no vitamin D supplementation (Off-D), atorvastatin
[8] = vitamin D supplementation 800 IU/day six weeks (On-D), patients on atorvastatin

With CC(C)c1c(C(=O)Nc2ccc(O)cc2)c(-c2ccccc2)c(-c2ccc(F)cc2)n1CC[C@@H](O)C[C@@H](O)CC(=O)O [4-hydroxy-atorvastatin acid, 4-hydroxyatorvastatin acid] the “AUC/concentrations during vitamin D co-administration compared to the off-D study period” value ([1]; comparison between study periods) was “significantly lower”, the “ratio of hydroxy-atorvastatin acid to atorvastatin” value (“ratio of hydroxy-atorvastatin acid” for short) ([1]; during supplemental vitamin D) was 0.09±0.09 and the “ratio of hydroxy-atorvastatin acid” value ([1]; off-D) was 0.10±0.09.
For CC(C)c1c(C(=O)Nc2ccccc2)c(-c2ccccc2)c(-c2ccc(F)cc2)n1CC[C@@H](O)C[C@@H](O)CC(=O)O [atorvastatin], the “Cholesterol Total” value ([2]; no vitamin D supplementation (Off-D), atorvastatin 45±33 mg/day) was 169 ± 35 mg/dL, the “Cholesterol Total” value ([2]; no vitamin D supplementation (Off-D), atorvastatin 45±33 mg/day, listed as Atorvastatin) was 169 ± 35 mg/dL and the LDL-cholesterol [2, 7] was 97 ± 28 mg/dL. It also gave an LDL-cholesterol ([2]; no vitamin D supplementation (Off-D), atorvastatin, listed as Atorvastatin) of 97 ± 28 mg/dL and an HDL-cholesterol [2, 7] of 47 ± 11 mg/dL.
In the case of C=C1CC[C@H](O)C/C1=C/C=C1\CCC[C@]2(C)[C@@H]([C@H](C)/C=C/[C@H](C)C(C)C)CC[C@@H]12 [vitamin D2, ergocalciferol], the “circulating cholesterol compared with atorvastatin and placebo” value [3] is reported as “additional reduction”.
In the case of C=C1/C(=C\C=C2/CCC[C@]3(C)[C@@H]([C@H](C)CCCC(C)(C)O)CC[C@@H]23)C[C@@H](O)C[C@@H]1O [1,25-(OH)2 vitamin D], the “regulation of CYP3A activity” value [4] is given as “increased transcription of CYP3A protein and greater metabolism of the CYP3A substrate midazolam”.
For C=C1CC[C@H](O)C/C1=C/C=C1\CCC[C@]2(C)[C@@H]([C@H](C)CCCC(C)C)CC[C@@H]12 [D3, cholecalciferol], the “circulating cholesterol compared with atorvastatin and placebo” value [3] was “additional reduction”.
With CC(C)c1c(C(=O)Nc2ccccc2O)c(-c2ccccc2)c(-c2ccc(F)cc2)n1CCC(O)CC(O)CC(=O)O (centres unmarked) [2-OH, 2-hydroxyatorvastatin acid] the “ratio of hydroxy-atorvastatin acid” value ([1]; during supplemental vitamin D) was 0.74±0.36 and the “ratio of hydroxy-atorvastatin acid” value ([1]; off-D) was 0.81±0.32.
For vitamin D, the “Vitamin D (25-OH) Total 25-hydroxy serum concentration” value ([5]; patients on atorvastatin) was 29 ± 14 ng/mL, the “Vitamin D (active) 1,25-dihydroxy serum concentration” value ([5]; patients on atorvastatin) was 38 ± 15 pg/mL and the “D3, 25-hydroxy serum concentration” value [5] was 20 ± 17 ng/mL. The “difference in HDL-cholesterol with vitamin D supplementation” value ([2]; On-D versus Off-D) was “No difference”, the “subjects with lower total cholesterol during supplemental vitamin D” value ([2]; On-D versus Off-D, patients on atorvastatin) was “thirteen of sixteen” and the “mean difference in LDL-cholesterol” value ([2]; after six weeks of vitamin D supplementation, co-administered with atorvastatin) was 14.4%. The “Cholesterol Total” value ([2]; vitamin D supplementation 800 IU/day six weeks (On-D), patients on atorvastatin 45±33 mg/day) was 157 ± 37 mg/dL, the LDL-cholesterol [2, 8] was 83 ± 30 mg/dL and the HDL-cholesterol [2, 8] was 44 ± 11 mg/dL. It also gave a total cholesterol ([6]; after about 12 weeks of 1000 IU vitamin D (single and combined forms of D2 and D3), 241 before vitamin D) of 201 mg/dL, an LDL-cholesterol ([6]; after about 12 weeks of 1000 IU vitamin D, 125 before vitamin D) of 112 mg/dL and an LDL-cholesterol ([6]; after about 12 weeks of 1000 IU vitamin D, 144 before vitamin D) of 98 mg/dL. It also gave a total cholesterol ([6]; after about 12 weeks of 1000 IU vitamin D, 238 before vitamin D) of 219 mg/dL.
